The subject of data set [1] is Aβ42. Description: γ-secretase-modulating activity, Method 1: Aβ42 sandwich ELISA in supernatant of SKNBE2 cells carrying APP 695-wild type (Table 3a). It is filed as cell-based. The settings on record: 18 h, averaged IC50 values. How it is done: (§1) Pharmacology A) Screening of the Compounds of the Invention for γ-Secretase-Modulating Activity A1) Method 1
(§2) Screening was carried out using SKNBE2 cells carrying the APP 695-wild type, grown in Dulbecco's Modified Eagle's Medium/Nutrient mixture F-12 (DMEM/NUT-mix F-12) (HAM) provided by Gibco (cat no. 31330-38) containing 5% Serum/Fe supplemented with 1% non-essential amino acids. Cells were grown to near confluency.
(§3) The screening was performed using the assay as described in Citron et al (1997) Nature Medicine 3: 67. Briefly, cells were plated in a 96-well plate at about 10^5 cells/ml one day prior to addition of compounds. Compounds were added to the cells in Ultraculture (Lonza, BE12-725F) supplemented with 1% glutamine (Invitrogen, 25030-024) for 18 h. The media were assayed by two sandwich ELISAs, for Aβ42 and Aβtotal. Toxicity of the compounds was assayed by WST-1 cell proliferation reagent (Roche, 1 644 807) according to the manufacturer's protocol.
To quantify the amount of Aβ42 in the cell supernatant, commercially available Enzyme-Linked-Immunosorbent-Assay (ELISA) kits were used (Innotest® β-Amyloid(1-42), Innogenetics N.V., Ghent, Belgium). The Aβ42 ELISA was performed essentially according to the manufacturer's protocol. Briefly, the standards (dilutions of synthetic Aβ1-42) were prepared in polypropylene Eppendorf with final concentrations of 8000 down to 3.9 pg/ml (1/2 dilution step). Samples, standards and blanks (100 μl) were added to the anti-Aβ42-coated plate supplied with the kit (the capture antibody selectively recognizes the C-terminal end of the antigen). The plate was allowed to incubate 3 h at 25° C. in order to allow formation of the antibody-amyloid complex. Following this incubation and subsequent wash steps a selective anti-Aβ-antibody conjugate (biotinylated 3D6) was added and incubated for a minimum of 1 hour (h) in order to allow formation of the antibody-Amyloid-antibody-complex. After incubation and appropriate wash steps, a Streptavidine-Peroxidase-Conjugate was added, followed 30 minutes later by an addition of 3,3′,5,5′-tetramethylbenzidine (TMB)/peroxide mixture, resulting in the conversion of the substrate into a coloured product. This reaction was stopped by the addition of sulfuric acid (0.9 N) and the colour intensity was measured by means of photometry with an ELISA-reader with a 450 nm filter.
To obtain the values reported in Table 3a, the data were calculated as percentage of the maximum amount of amyloid Beta 42 measured in the absence of the test compound. The sigmoidal dose response curves were analyzed using non-linear regression analysis with percentage of the control plotted against the log concentration of the compound. A 4-parameter equation was used to determine the IC50. The values reported in Table 3a are averaged IC50 values.
Background: An ELISA detects its analyte on a solid surface through an enzyme-linked reagent.

Data set [2] relates to Aβtotal. The data set can be described thus: γ-secretase-modulating activity, Method 1: Aβtotal sandwich ELISA in supernatant of SKNBE2 cells carrying APP 695-wild type. The settings on record: Table 3a, 18 h, averaged IC50 values. The class given is cell-based. Here is the method: as §1, §2, §3
To quantify the amount of Aβtotal in the cell supernatant, samples and standards were added to a 6E10-coated plate. The plate was allowed to incubate overnight at 4° C. in order to allow formation of the antibody-amyloid complex. Following this incubation and subsequent wash steps a selective anti-Aβ-antibody conjugate (biotinylated 4G8) was added and incubated for a minimum of 1 h in order to allow formation of the antibody-Amyloid-antibody-complex. After incubation and appropriate wash steps, a Streptavidine-Peroxidase-Conjugate was added, followed 30 minutes later by an addition of Quanta Blu fluorogenic peroxidase substrate according to the manufacturer's instructions (Pierce Corp., Rockford, Ill.).

Data set [3] relates to Aβ42. The data set can be described thus: γ-secretase-modulating activity, Method 2: Aβ42 Alphalisa in supernatant of SKNBE2 cells carrying APP 695-wild type (Table 3b). It is filed as cell-based. The settings on record: overnight. Summed up: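 Aβ42 in the supernatant was quantified by AlphaLISA sandwich (JRF/cAβ42/26 with JRF/AβN/25). Cells were wild-type APP695 SKNBE2, exposed to compound overnight at 37° C., 5% CO2. Data were normalised to untreated maximum and fitted with a four-parameter curve to give IC50.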
In general terms: Alpha assays give light when donor and acceptor beads are brought close together.

Data set [4] relates to Aβtotal. The data set can be described thus: γ-secretase-modulating activity, Method 2: Aβtotal Alphalisa in supernatant of SKNBE2 cells carrying APP 695-wild type (Table 3b). The class given is cell-based. The settings on record: overnight, read-out: IC50 Aβtot. Summed up:
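Secreted Aβtotal was quantified by AlphaLISA pairing an N-terminal antibody (JRF/AβN/25) with biotinylated mid-region 4G8. Wild-type APP 695 SKNBE2 cells received serially varied compound overnight at 37 °C; IC50 came from a 4-parameter nonlinear regression of percent of control against log dose.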

In data set [5] the test system is Aβ42. The data set can be described thus: In vivo efficacy, Method 1: brain soluble Aβ42 lowering 4 h after a single oral dose, ELISA (Table 4a). Set-up: species or system mouse. The settings on record: dose 30 mg/kg oral dosing. The text has this: (§4) To determine whether acute administration of an Aβ42 lowering agent would reduce Aβ42 levels in vivo, non-transgenic rodents, e.g. mice or rats were used. Alternatively, two to three month old Tg2576 mice expressing APP695 containing the “Swedish” variant can be used or a transgenic mouse model developed by Dr. Fred Van Leuven (K.U. Leuven, Belgium) and co-workers, with neuron-specific expression of a clinical mutant of the human amyloid precursor protein [V717I] (Moechars et al., 1999 J. Biol. Chem. 274, 6483). Young transgenic mice have high levels of Aβ in the brain but no detectable Aβ deposition. At approximately 6-8 months of age, the transgenic mice start to display spontaneous, progressive accumulation of β-amyloid (Aβ) in the brain, eventually resulting in amyloid plaques within the subiculum, hippocampus and cortex. Animals treated with the Aβ42 lowering agent were examined and compared to those untreated or treated with vehicle and brain levels of soluble Aβ42 and total Aβ would be quantitated by standard techniques, for example, using ELISA. Treatment periods varied from hours (h) to days and were adjusted based on the results of the Aβ42 lowering once a time course of onset of effect could be established.
(§5) A typical protocol for measuring Aβ42 lowering in vivo is shown but it is only one of many variations that could be used to optimize the levels of detectable Aβ. For example, Aβ42 lowering compounds were formulated in 20% of Captisol® (a sulfobutyl ether of β-cyclodextrin) in water or 20% hydroxypropyl cyclodextrin. The Aβ42 lowering agents were administered as a single oral dose or by any acceptable route of administration to overnight fasted animals. After 4 h, the animals were sacrificed and Aβ42 levels were analysed.
(§6) Blood was collected by decapitation and exsanguinations in EDTA-treated collection tubes. Blood was centrifuged at 1900 g for 10 minutes (min) at 4° C. and the plasma recovered and flash frozen for later analysis. The brain was removed from the cranium and hindbrain. The cerebellum was removed and the left and right hemisphere were separated. The left hemisphere was stored at −18° C. for quantitative analysis of test compound levels. The right hemisphere was rinsed with phosphate-buffered saline (PBS) buffer and immediately frozen on dry ice and stored at −80° C. until homogenization for biochemical assays.
(§7) Mouse brains were resuspended in 10 volumes of 0.4% DEA (diethylamine)/50 mM NaCl pH 10 (for non-transgenic animals) or 0.1% 3-[(3-cholamidopropyl)-dimethyl-ammonio]-1-propanesulfonate (CHAPS) in tris buffered saline (TBS) (for transgenic animals) containing protease inhibitors (Roche-11873580001 or 04693159001) per gram of tissue, e.g. for 0.158 g brain, add 1.58 ml of 0.4% DEA. All samples were sonicated for 30 seconds on ice at 20% power output (pulse mode). Homogenates were centrifuged at 221.300×g for 50 min. The resulting high speed supernatants were then transferred to fresh tubes and were optionally further purified before the next step. A portion of the supernatant was neutralized with 10% 0.5 M Tris-HCl and this was used to quantify Aβtotal.
The obtained supernatants were purified with Water Oasis HLB reverse phase columns (Waters Corp., Milford, Mass.) to remove non-specific immunoreactive material from the brain lysates prior subsequent Aβ detection. Using a vacuum manifold, all solutions were passed through the columns at a rate of approximately 1 ml per min, so the vacuum pressure was adjusted accordingly throughout the procedure. Columns were preconditioned with 1 ml of 100% MeOH, before equilibration with 1 ml of H2O, Non-neutralized brain lysates were loaded onto the columns. The loaded samples were then washed twice with the first wash performed with 1 ml of 5% MeOH, and the second wash with 1 ml of 30% MeOH. Finally, the Aβ was eluted from the columns and into 100×30 mm glass tubes, with a solution of 90% MeOH with 2% NH4OH. […]

Data set [6] deals with Aβtotal. The data set can be described thus: In vivo efficacy, Method 1: brain soluble Aβtotal lowering 4 h after a single oral dose, ELISA (Table 4a). Set-up: species or system mouse. The settings on record: dose 30 mg/kg oral dosing.
Source text: as §4, §5, §6, §7
To quantify the amount of Aβ42 in the soluble fraction of the brain homogenates, commercially available Enzyme-Linked-Immunosorbent-Assay (ELISA) kits were used (e.g. Innotest® β-Amyloid(1-42), Innogenetics N.V., Ghent, Belgium). The Aβ42 ELISA was performed using the plate provided with the kit only. Briefly, the standards (a dilution of synthetic Aβ1-42) were prepared in 1.5 ml Eppendorf tube in Ultraculture, with final concentrations ranging from 25000 to 1.5 pg/ml. Samples, standards and blanks (60 μl) were added to the anti-Aβ42-coated plate (the capture antibody selectively recognizes the C-terminal end of the antigen). The plate was allowed to incubate overnight at 4° C. in order to allow formation of the antibody-amyloid complex. […]

For orientation: IC50 means the concentration that gives 50% inhibition. As for `CCCc1[nH]c(-c2ccc(-n3cnc(C)c3)c(OC)c2)nc1-c1ccccc1` [Compound 29], the 50% inhibitory concentration (IC50) in the data set on Aβ42 [1] is 190 nM; in the data set with Aβtotal [2], above 3000 nM; in the data set with Aβ42 [3], 170 nM; in the data set with Aβtotal [4], above 10000 nM.
On the same counts, the results for `COc1cc(-c2nc(-c3cccc(C(F)(F)F)c3)c(C)n2C)ccc1-n1cnc(C)c1` [Compound 14] are 500 nM, above 3000 nM, 282 nM and 5250 nM.
As usually defined, the melting point is the temperature, or range, at which the solid turns liquid. `COc1cc(-c2nc(C)n(-c3ccc(F)cc3)n2)ccc1-n1cnc(C)c1` [Compound 3] displayed a melting point of 157.3 °C. The molecule further yielded an IC50 with Aβ42 [1] (Homo sapiens) of 490 nM. In the data set on Aβtotal [2] (Homo sapiens), this molecule gave a concentration for half-maximal inhibition (IC50) above 3000 nM. Moreover, half-maximal inhibition with Aβ42 [3] (Homo sapiens) (IC50) was put at 417 nM. The IC50 in the data set on Aβtotal [4] (Homo sapiens) was above 10000 nM.
As for `COc1cc(-n2cnc(C)c2)ccc1-c1nc(-c2ccccc2)c(C)[nH]1` [Compound 27], the half-maximal inhibitory concentration (IC50) is 170 nM in the data set with Aβ42 [1], above 10000 nM in the data set with Aβtotal [2], below 3000 nM in the data set on Aβ42 [3] and above 3000 nM in the data set on Aβtotal [4].
On to `Cc1cn(-c2ccc(-c3nc(Nc4cccc(C(F)(F)F)c4)n[nH]3)cn2)cn1` [Compound 24], for which the IC50 in the data set with Aβ42 [1] (Homo sapiens) was 1450 nM; in the data set with Aβtotal [2] (Homo sapiens) it was above 3000 nM; in the data set with Aβ42 [3] (Homo sapiens) it was 1050 nM; with Aβtotal [4] (Homo sapiens), 6610 nM.
For `COc1cc(-c2nc(-c3ccccc3)c(C)[nH]2)ccc1-n1cnc(C)n1` [Compound 28], the IC50 in the data set with Aβ42 [1], in the data set with Aβtotal [2], in the data set on Aβ42 [3] and in the data set with Aβtotal [4] was above 3000 nM throughout.
As to `COc1cc(-c2nc(C)c(C)[nH]2)ccc1-n1cnc(C)c1` [Compound 25], the IC50 with Aβ42 [1] was 2510 nM; in the data set with Aβtotal [2] it was above 3000 nM; in the data set with Aβ42 [3] it was 6460 nM; with Aβtotal [4] it was above 10000 nM.
Consider `COc1nc(-c2nc(-c3cccc(C(F)(F)F)c3)n(C(C)C)n2)ccc1-n1cnc(C)c1.Cl.Cl` [Compound 68], for which the IC50 in the data set with Aβ42 [3] was 135 nM; in the data set with Aβtotal [4], above 10000 nM. Moreover, in the data set on Aβ42 [5], the “Aβ42 (% Ctrl) _Mean” value was found to be 29 % Ctrl. The “Aβtotal (% Ctrl) _Mean” value with Aβtotal [6] was −3 % Ctrl.
Regarding `COc1cc(-c2nc(C)c(-c3cccc(C(F)(F)F)c3)n2C)ccc1-n1cnc(C)c1` [Compound 13], the half-inhibitory concentration (IC50) in the data set with Aβ42 [1] is 1050 nM; in the data set on Aβtotal [2] it was above 3000 nM; in the data set on Aβ42 [3], 724 nM; in the data set with Aβtotal [4] it was above 10000 nM.
On to `COc1cc(-c2nc(-c3cccc(C(F)(F)F)c3)n(C(C)C)n2)ccc1-n1cnc(C)c1` [Compound 39], for which the IC50 in the data set on Aβ42 [3] (Homo sapiens) was 105 nM; in the data set with Aβtotal [4] (Homo sapiens), 7940 nM. The “Aβ42 (% Ctrl) _Mean” value with Aβ42 [5] turned out to be 17 % Ctrl. The “Aβtotal (% Ctrl) _Mean” value in the data set on Aβtotal [6] is 0 % Ctrl.
`COc1cc(-c2nc(C(C)C)n(-c3cccc(C(F)(F)F)c3)n2)ccc1-n1cnc(C)c1.Cl` [Compound 32]: the figures for the half-maximal inhibitory concentration (IC50) in the data set on Aβ42 [3] and in the data set with Aβtotal [4] were 191 nM and 6760 nM, respectively. Further, in the data set with Aβ42 [5], the “Aβ42 (% Ctrl) _Mean” value amounted to 6 % Ctrl. The “Aβtotal (% Ctrl) _Mean” value in the data set on Aβtotal [6] was 2 % Ctrl.

For the origin of these results see patent US8946266B2, “Substituted triazole and imidazole derivatives as gamma secretase modulators” (Janssen Pharmaceuticals, Inc., priority 2009, dated 2015).
